{
  "source": "patent US7488468B1",
  "about": "“Near infrared fluorescent contrast agent and fluorescence imaging” (Schering AG, priority 1998, dated 2009)",
  "key": {"[1]": {"assay": "Partition coefficient (log Po/w) of n-butanol/water", "assay_type": "physicochemical", "settings": "n-butanol/water two-phase system", "text": "The fluorescent contrast agent to be used in a living body should be particularly water soluble. […] For easy synthesis, the number of the sulfonic acid groups is not more than 10, preferably not more than 8. The improvement in the water solubility can be determined by measuring partition coefficient of each compound, which for example, may be measured in a two-phase system of butanol/water. More specifically, introduction of 3 or more sulfonic acid groups results in a partition coefficient log Po/w of n-butanol/water of not more than −1.00."}, "mice": {"test_system": "mice", "assay": "Acute toxicity", "assay_type": "in vivo", "settings": "intravenous injection from tail vein, conscious mice, monitored for 3 days", "method": "Reduction of toxicity by the introduction of sulfonic acid group and reduction thereof by conversion into sodium salt were studied.\nEach test compound was dissolved in distilled water to give a compound solution. This solution was intravenously injected to the conscious mice from the tail vein. The mice were monitored for 3 days after the administration, and acute toxicity [LD50 (mg/kg body weight)] was estimated."}},
  "data": [
    {"smiles": "CC1(C)C(=CC=CC2=[N+](CCCS(=O)(=O)[O-])c3ccccc3C2(C)C)N(CCCS(=O)(=O)[O-])c2ccccc21.[Na+]", "note": "[NK-1967]", "values": [
      {"measurement": "log Po/w (butanol/water)", "setting": "[1]", "result": 0.34},
      {"measurement": "LD50", "setting": "mice", "result": 20, "unit": "mg/kg body weight"}
    ]}
  ]
}
